Reference: patent US20220259212A1, “INHIBITORS OF INDOLEAMINE 2,3-DIOXYGENASE AND/OR TRYPTOPHAN 2,3-DIOXYGENASE” (Idorsia Pharmaceuticals Ltd, priority 2019, published 2022)

Assays:
[1] = target: T1, Recombinant full-length human IDO1 (Homo sapiens, UniProt P14902); experiment: IDO1 enzymatic assay (NFK quantified by LCMS); type: biochemical; conditions: 2 nM enzyme, 5 μM L-tryptophan, 30 min pre-incubation, pH6.5; mean if measured multiple times; read-out: hIDO activity (IC50 in nM)
T1 construct: Recombinant full-length human IDO1 with a N-terminal hexahistidine tag; hexahistidine (N); made in house; host or cells: E. coli
T1 sequence (P14902 whole entry): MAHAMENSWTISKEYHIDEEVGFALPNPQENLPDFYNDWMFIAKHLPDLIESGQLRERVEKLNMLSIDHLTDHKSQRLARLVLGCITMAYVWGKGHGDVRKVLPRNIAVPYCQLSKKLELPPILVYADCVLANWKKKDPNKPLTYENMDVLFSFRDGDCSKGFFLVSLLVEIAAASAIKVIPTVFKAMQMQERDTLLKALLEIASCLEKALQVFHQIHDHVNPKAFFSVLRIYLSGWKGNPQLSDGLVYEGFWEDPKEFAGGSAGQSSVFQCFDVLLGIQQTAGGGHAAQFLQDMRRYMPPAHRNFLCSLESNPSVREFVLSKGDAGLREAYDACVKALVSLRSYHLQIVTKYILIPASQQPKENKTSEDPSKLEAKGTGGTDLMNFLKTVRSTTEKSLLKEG
Procedure: 1) Testing Compounds for IDO Inhibitory Activity in an IDO1 Enzymatic Assay:
Recombinant full-length human IDO1 with a N-terminal hexahistidine tag expressed in E. coli and purified to homogeneity is incubated at a final concentration of 2 nM in assay buffer consisting of 37.5 mM phosphate buffer at pH6.5 supplemented with 10 mM ascorbic acid, 0.45 μM methylene blue, 50 U/ml catalase, 0.01% BSA, and 0.01% Tween 20 (protocol modified from Seegers et al, JBS 2014). Example compounds are serially diluted in DMSO, further diluted in phosphate buffer, and added to the enzyme at final concentrations ranging from 10 μM to 0.5 nM. The final DMSO concentration is 0.6%. Following a pre-incubation of 30 minutes at RT, the reaction is started by the addition of L-tryptophan at a final concentration of 5 μM in assay buffer. After 30 minutes of incubation at RT, 3 μL of the 20 μl reaction mixture are transferred to a 384 deep well plate containing 25 μL of deionized water. 100 μl of 200 nM L-Tryptophan-(indole-d5) in cold 100% methanol are added followed by a 10 minutes centrifugation at 3220×g at 4° C. An additional 75 μL of deionized water are then added followed by a 10 minutes centrifugation at 3220×g at 4° C. The product of the reaction N′-Formylkynurenine (NFK) is quantified by LCMS and normalized to the L-Tryptophan-(indole-d5) signal. Samples with 0.6% DMSO (0% effect) and a TDO/IDO inhibitor (100% effect) are used as control samples to set the parameters for the non-linear regression necessary for the determination of the half-maximal inhibitory concentration (IC50) for each compound. For each compound concentration the percentage of activity compared to 0% and 100% effect is calculated as average±STDEV (each concentration measured in duplicate). IC50 values and curves are generated with XLfit software (IDBS) using Dose-Response One Site model 203 (four parameter logistic curve model). The calculated IC50 values may fluctuate depending on the daily assay performance. Fluctuations of this kind are known to those skilled in the art. When compounds are measured multiple times, mean values are given.

[2] = target: T2, IDO1 in SKOV3 cells (Homo sapiens, UniProt P14902); experiment: Cell-based IDO inhibitory activity in IFNγ-stimulated SKOV3 cells (NFK + kynurenine by LCMS); conditions: IFNγ 50 ng/ml, 200 uM L-tryptophan, 24 hours
T2 construct: SKOV3 cells (NCI, No. 0503405) which upregulate IDO1 after stimulation with IFNγ; host or cells: SKOV3 cells stimulated with IFNγ
T2 sequence (P14902 whole entry): as above
Description: 3) Testing Compounds for IDO/TDO Inhibitory Activity and Toxicity in Cell-Based Assays
SW48 cells (ATCC, CCL-231) are used to measure compounds for TDO inhibitory activity and are routinely maintained in DMEM high glucose/GlutaMAX™/pyruvate 90% (v/v), FCS 10% (v/v), Penicilin/streptomycin 1% (v/v). SKOV3 cells (NCI, No. 0503405) which upregulate IDO1 after stimulation with IFNγ are used to measure compounds for IDO inhibitory activity. SKOV3 cells are routinely maintained in RPMI 90% (v/v), FCS 10% (v/v), Penicilin/streptomycin 1% (v/v). SW48 or SKOV3 cells are seeded in 384 well plates at a density of 8000 cells in 45 ul per well or 4000 cells in 45 ul per well, respectively. Plates are incubated at 37° C./5% CO2 for 24 hours. On the next day, 10 ul compound in serial dilutions (tested concentration range 10 uM-40 nM) and 200 uM L-tryptophan are added (SKV03 receive in addition IFNγ at a final concentration of 50 ng/ml). After 24 hours of incubation at 37° C./5% CO2, 3 ul of the supernatant per well is transferred to 25 ul H2O per well in a 384 deep well plate and 25 ul of the supernatant per well is transferred to waste. The SKOV3 and SW48 cell plates with 25 ul supernatant per well remaining are used to measure viability (see below). The 384 deep well plate containing 3 ul supernatant and 25 ul H2O per well are further processed for LCMS: After the addition of 100 ul L-tryptophan-(indole-d5) (Sigma 615862) at 200 nM in methanol, the 384 deep well plates are centrifuged for 10 minutes at 3220×g at 4° C., 75 ul H2O is added per well and plates centrifuged again for 10 minutes at 3220×g at 4° C. N-formylkynurenine and kynurenine are quantified by LCMS, normalized to the internal standard L-tryptophan-(indole-d5) and the sum is calculated. Samples with 0.2% DMSO (0% effect) and a TDO/IDO inhibitor (100% effect) are used as control samples to set the parameters for the non-linear regression necessary for the determination of the IC50 for each compound. For each compound concentration the percentage of activity compared to 0% and 100% effect is calculated as average±STDEV (each concentration measured in duplicate). IC50 values and curves are generated with XLfit software (IDBS) using Dose-Response One Site model 203. The calculated IC50 values may fluctuate depending on the daily cellular assay performance. Fluctuations of this kind are known to those skilled in the art. When compounds are measured multiple times, mean values are given.

[3] = target: T3, Recombinant human TDO comprising amino acids 19-407 (Homo sapiens, UniProt P48775); experiment: TDO2 enzymatic assay (NFK quantified by LCMS); type: biochemical; conditions: 15 nM enzyme, 200 μM L-tryptophan, 30 min pre-incubation, pH7; mean if measured multiple times; read-out: hTDO activity (IC50 in nM)
T3 construct: human TDO comprising amino acids 19-407; hexahistidine (N); made in house; host or cells: E. coli
T3 sequence (P48775 19-406 limits assumed): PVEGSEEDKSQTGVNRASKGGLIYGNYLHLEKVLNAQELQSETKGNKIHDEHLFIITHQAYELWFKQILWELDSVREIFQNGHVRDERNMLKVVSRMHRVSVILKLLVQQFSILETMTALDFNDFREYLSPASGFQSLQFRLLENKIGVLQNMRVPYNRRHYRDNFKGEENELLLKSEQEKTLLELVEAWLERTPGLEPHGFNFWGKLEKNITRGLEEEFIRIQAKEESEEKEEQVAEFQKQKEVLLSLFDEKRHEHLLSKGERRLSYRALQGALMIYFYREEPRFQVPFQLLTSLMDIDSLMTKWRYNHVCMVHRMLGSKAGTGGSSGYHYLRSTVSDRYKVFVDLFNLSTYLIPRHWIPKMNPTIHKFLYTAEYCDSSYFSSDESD
Procedure: 2) Testing Compounds for TDO Inhibitory Activity in a TDO2 Enzymatic Assay:
Recombinant human TDO comprising amino acids 19-407 with a N-terminal hexahistidine tag expressed in E. coli and purified to homogeneity is incubated at a final concentration of 15 nM in assay buffer consisting of 75 mM phosphate buffer at pH7 supplemented with 100 μM ascorbic acid, 50 U/ml Catalase, 0.01% BSA, and 0.01% Tween 20 (protocol modified from Seegers et al, JBS 2014). Example compounds are serially diluted in DMSO, further diluted in phosphate buffer, and added to the reaction mixture at final concentrations ranging from 10 μM to 0.5 nM. The final DMSO concentration is 0.6%. Following a pre-incubation of 30 minutes at RT, the reaction is started by the addition of L-tryptophan at a final concentration of 200 μM in assay buffer. After 30 minutes of incubation at RT, 3 μL of the reaction mixture are transferred to a 384 deep well plate containing 25 μL of deionized water. 100 μl of 200 nM L-Tryptophan-(indole-d5) in cold 100% methanol are added followed by a 10 minutes centrifugation at 3220×g at 4° C. An additional 75 μL of deionized water are then added followed by a 10 minutes centrifugation at 3220×g at 4° C. The product of the reaction N′-Formylkynurenine (NFK) is quantified by LCMS and normalized to the L-Tryptophan-(indole-d5) signal. Samples with 0.6% DMSO (0% effect) and a TDO/IDO inhibitor (100% effect) are used as control samples to set the parameters for the non-linear regression necessary for the determination of the half-maximal inhibitory concentration (IC50) for each compound. For each compound concentration the percentage of activity compared to 0% and 100% effect is calculated as average±STDEV (each concentration measured in duplicate). IC50 values and curves are generated with XLfit software (IDBS) using Dose-Response One Site model 203 (four parameter logistic curve model). The calculated IC50 values may fluctuate depending on the daily assay performance. Fluctuations of this kind are known to those skilled in the art. When compounds are measured multiple times, mean values are given.

Row | Compound | IC50 [1] [nM] | IC50 [2] [nM] | IC50 [3] [nM]
1 | Oc1ccc(-n2cc(C(O)c3c(C4CC4)ncc4cncn34)nn2)cc1 (racemic) [Example 15, rac-4-{4-[(6-Cyclopropyl-imidazo[1,5-a]pyrazin-5-yl)-hydroxy-methyl]-[1,2,3]triazol-1-yl}-phenol] | 13.1 | 208 | 9610
2 | CCc1c(C(O)c2c(Cl)ccc3cncn23)nnn1-c1ccc(OC)cc1 (racemic) [Example 37, rac-(6-Chloro-imidazo[1,5-a]pyridin-5-yl)-[5-ethyl-1-(4-methoxy-phenyl)-1H-[1,2,3]triazol-4-yl]-methanol] | 5.28 | 39 | 6640
3 | Nc1ccc(-n2cc([C@H](O)c3c(C4CC4)ncc4cncn34)nn2)cc1 [Example 41, (R)-[1-(4-Amino-phenyl)-1H-[1,2,3]triazol-4-yl]-(6-cyclopropyl-imidazo[1,5-a]pyrazin-5-yl)-methanol] | 17.5 | 212 | > 10200
4 | Oc1ccc(-n2cc(C(O)c3c(C4CC4)ncc4cncn34)nn2)cc1Cl (racemic) [Example 10, rac-2-Chloro-4-{4-[(6-cyclopropyl-imidazo[1,5-a]pyrazin-5-yl)-hydroxy-methyl]-[1,2,3]triazol-1-yl}-phenol] | 9.6 | 25.4 | > 10200
5 | CN(C)c1ccc(-n2cc([C@H](O)c3c(C4CC4)ncc4cncn34)nn2)cc1 [Example 44, (R)-(6-Cyclopropyl-imidazo[1,5-a]pyrazin-5-yl)-[1-(4-dimethylamino-phenyl)-1H-[1,2,3]triazol-4-yl]-methanol] | 14.5 | 377 | > 10200
6 | OC(c1ccn(-c2ccccc2)n1)c1c(Cl)ccc2cncn12 (racemic) [Ref2, rac-(6-Chloro-imidazo[1,5-a]pyridin-5-yl)-(1-phenyl-1H-pyrazol-3-yl)-methanol, reference compound] | 433 | 2940 | > 10200
7 | Cc1ccc(-n2cc(C(O)c3c(C4CC4)ccc4cncn34)nn2)cc1 (racemic) [Example 5, rac-(6-Cyclopropyl-imidazo[1,5-a]pyridin-5-yl)-(1-p-tolyl-1H-[1,2,3]triazol-4-yl)-methanol] | 4.83 | 53.7 | > 10200
8 | COc1ccc(-n2cc(C(O)c3c(C4CC4)ccc4cncn34)nn2)cc1Cl (racemic) [Example 8, rac-[1-(3-Chloro-4-methoxy-phenyl)-1H-[1,2,3]triazol-4-yl]-(6-cyclopropyl-imidazo[1,5-a]pyridin-5-yl)-methanol] | 7.41 | 8.8 | > 10200
9 | CCc1ncc2cncn2c1C(O)c1cn(-c2cc(F)c(OC)cc2F)nn1 (racemic) [Example 32, rac-[1-(2,5-Difluoro-4-methoxy-phenyl)-1H-[1,2,3]triazol-4-yl]-(6-ethyl-imidazo[1,5-a]pyrazin-5-yl)-methanol] | 14.3 | 70.2 | > 10200
10 | COc1ccc(-n2cc([C@H](O)c3c(C4CC4)ncc4cncn34)nn2)c(F)c1Cl [Example 33, (R)-[1-(3-Chloro-2-fluoro-4-methoxy-phenyl)-1H-[1,2,3]triazol-4-yl]-(6-cyclopropyl-imidazo[1,5-a]pyrazin-5-yl)-methanol] | 5.33 | 127 | > 10200
11 | Oc1ccc(-n2cc(C(O)c3c(C4CC4)ccc4cncn34)nn2)cc1Cl (single isomer, unassigned) [Example 7a] | 2.12 | 4.84 | > 10200
12 | Oc1ccc(-n2cc(C(O)c3c(C4CC4)ccc4cncn34)nn2)cc1Cl (racemic) [Example 7, rac-2-Chloro-4-{4-[(6-cyclopropyl-imidazo[1,5-a]pyridin-5-yl)-hydroxy-methyl]-[1,2,3]triazol-1-yl}-phenol] | 3.77 | 6.12 | > 10200
13 | Oc1ccc(-n2cc([C@@H](O)c3c(C4CC4)ccc4cncn34)nn2)cc1Cl [Example 7b, 2-Chloro-4-{4-[(S)-(6-cyclopropyl-imidazo[1,5-a]pyridin-5-yl)-hydroxy-methyl]-[1,2,3]triazol-1-yl}-phenol] | 361 | 703 | > 10200
14 | OC(c1cn(-c2ccccc2)nn1)c1c(C2CC2)ncc2cncn12 (racemic) [Example 3, rac-(6-Cyclopropyl-imidazo[1,5-a]pyrazin-5-yl)-(1-phenyl-1H-[1,2,3]triazol-4-yl)-methanol] | 41 | 470 | > 10200
15 | CNc1ccc(-n2cc([C@H](O)c3c(C4CC4)ncc4cncn34)nn2)cc1 [Example 42, (R)-(6-Cyclopropyl-imidazo[1,5-a]pyrazin-5-yl)-[1-(4-methylamino-phenyl)-1H-[1,2,3]triazol-4-yl]-methanol] | 13.5 | 199 | > 10200
